Reference: the kinase profiling compilation of Christmann-Franck et al. (2016)

Columns and labels:
Assay in all cases: KINOMEscan competition binding
Details in all cases: compound 10.0 µM
TLK1 (human) = TLK1 (human) (UniProt Q9UKI8)
PRKD1 (human) = PRKD1 (human) (UniProt Q15139)
CSNK1A1 (human) = CSNK1A1 (human) (UniProt P48729)
FLT3 (human) = FLT3 (human) (UniProt P36888)
RPS6KA4 KD2 (human) = RPS6KA4 KD2 (human) (UniProt O75676)
PAK7 (human) = PAK7 (human) (UniProt Q9P286)
PIP4K2C (human) = PIP4K2C (human) (UniProt Q8TBX8)
MST1R (human) = MST1R (human) (UniProt Q04912)
MAP4K4 (human) = MAP4K4 (human) (UniProt O95819)
EPHA5 (human) = EPHA5 (human) (UniProt P54756)
MAP3K6 (human) = MAP3K6 (human) (UniProt O95382)
MERTK (human) = MERTK (human) (UniProt Q12866)
PKN1 (human) = PKN1 (human) (UniProt Q16512)
MARK3 (human) = MARK3 (human) (UniProt P27448)
PIK3CB (human) = PIK3CB (human) (UniProt P42338)
FGFR1 (human) = FGFR1 (human) (UniProt P11362)
NLK (human) = NLK (human) (UniProt Q9UBE8)
CSNK1G3 (human) = CSNK1G3 (human) (UniProt Q9Y6M4)
STK16 (human) = STK16 (human) (UniProt O75716)
MYLK2 (human) = MYLK2 (human) (UniProt Q9H1R3)
CSNK1A1L (human) = CSNK1A1L (human) (UniProt Q8N752)
MAP3K4 (human) = MAP3K4 (human) (UniProt Q9Y6R4)
STK32B (human) = STK32B (human) (UniProt Q9NY57)
PIK3CD (human) = PIK3CD (human) (UniProt O00329)
CSNK2A1 (human) = CSNK2A1 (human) (UniProt P68400)
LYN (human) = LYN (human) (UniProt P07948)
ULK1 (human) = ULK1 (human) (UniProt O75385)
[1] = biological target: TYK2 JH2 pseudokinase (human) (UniProt P29597)
BRAF (human) = BRAF (human) (UniProt P15056)
[2] = biological target: JAK1 JH1 catalytic (human) (UniProt P23458)
RIOK2 (human) = RIOK2 (human) (UniProt Q9BVS4)
MAPK6 (human) = MAPK6 (human) (UniProt Q16659)
MAP4K1 (human) = MAP4K1 (human) (UniProt Q92918)
MAP3K3 (human) = MAP3K3 (human) (UniProt Q99759)
MAPK7 (human) = MAPK7 (human) (UniProt Q13164)

CSNK2A1 (human), sequence (P68400 whole entry, looked up): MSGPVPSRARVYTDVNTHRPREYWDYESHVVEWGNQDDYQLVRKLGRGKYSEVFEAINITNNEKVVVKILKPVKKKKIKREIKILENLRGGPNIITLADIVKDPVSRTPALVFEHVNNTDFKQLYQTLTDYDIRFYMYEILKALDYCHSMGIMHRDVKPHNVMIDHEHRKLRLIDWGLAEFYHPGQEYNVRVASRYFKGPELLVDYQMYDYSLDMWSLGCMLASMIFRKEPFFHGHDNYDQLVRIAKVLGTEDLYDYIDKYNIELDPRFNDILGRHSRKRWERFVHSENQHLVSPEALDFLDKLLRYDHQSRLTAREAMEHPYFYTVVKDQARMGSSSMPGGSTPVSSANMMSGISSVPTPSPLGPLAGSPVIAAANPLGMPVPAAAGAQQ
MAP3K6 (human), sequence (O95382 whole entry, looked up): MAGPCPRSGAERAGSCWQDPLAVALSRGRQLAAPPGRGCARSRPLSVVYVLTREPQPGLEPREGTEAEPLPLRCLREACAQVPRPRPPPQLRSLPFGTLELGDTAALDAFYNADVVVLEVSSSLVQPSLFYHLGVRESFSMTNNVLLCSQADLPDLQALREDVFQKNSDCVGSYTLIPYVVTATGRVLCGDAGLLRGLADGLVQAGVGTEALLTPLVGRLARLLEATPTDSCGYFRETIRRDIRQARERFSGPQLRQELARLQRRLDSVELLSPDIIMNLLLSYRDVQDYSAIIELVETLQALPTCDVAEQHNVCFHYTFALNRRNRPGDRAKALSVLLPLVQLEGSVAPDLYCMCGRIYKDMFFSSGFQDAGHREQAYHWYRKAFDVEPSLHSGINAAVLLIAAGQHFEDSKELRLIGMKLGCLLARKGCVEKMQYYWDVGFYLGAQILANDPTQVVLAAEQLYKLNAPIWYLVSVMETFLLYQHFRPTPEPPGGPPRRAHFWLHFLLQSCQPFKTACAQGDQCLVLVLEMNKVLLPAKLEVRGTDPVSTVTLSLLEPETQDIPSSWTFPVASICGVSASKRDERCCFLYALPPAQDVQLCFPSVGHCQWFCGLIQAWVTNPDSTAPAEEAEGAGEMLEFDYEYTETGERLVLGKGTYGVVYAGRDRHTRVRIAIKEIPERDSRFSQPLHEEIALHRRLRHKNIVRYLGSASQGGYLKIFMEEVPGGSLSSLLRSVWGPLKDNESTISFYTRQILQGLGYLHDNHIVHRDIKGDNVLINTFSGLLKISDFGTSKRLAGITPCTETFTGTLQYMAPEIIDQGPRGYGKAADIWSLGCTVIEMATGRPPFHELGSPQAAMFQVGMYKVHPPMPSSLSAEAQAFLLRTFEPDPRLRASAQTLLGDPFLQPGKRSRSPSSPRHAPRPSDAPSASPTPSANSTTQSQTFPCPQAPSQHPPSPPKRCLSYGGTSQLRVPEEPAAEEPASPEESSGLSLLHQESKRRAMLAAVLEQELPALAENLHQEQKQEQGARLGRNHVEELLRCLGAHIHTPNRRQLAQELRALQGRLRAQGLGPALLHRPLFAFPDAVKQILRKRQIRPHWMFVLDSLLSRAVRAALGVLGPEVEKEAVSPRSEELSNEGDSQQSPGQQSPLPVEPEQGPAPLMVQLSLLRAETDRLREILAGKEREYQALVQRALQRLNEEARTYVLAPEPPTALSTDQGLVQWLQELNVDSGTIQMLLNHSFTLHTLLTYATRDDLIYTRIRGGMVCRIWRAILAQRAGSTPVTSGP
MAP3K4 (human), sequence (Q9Y6R4 whole entry, looked up): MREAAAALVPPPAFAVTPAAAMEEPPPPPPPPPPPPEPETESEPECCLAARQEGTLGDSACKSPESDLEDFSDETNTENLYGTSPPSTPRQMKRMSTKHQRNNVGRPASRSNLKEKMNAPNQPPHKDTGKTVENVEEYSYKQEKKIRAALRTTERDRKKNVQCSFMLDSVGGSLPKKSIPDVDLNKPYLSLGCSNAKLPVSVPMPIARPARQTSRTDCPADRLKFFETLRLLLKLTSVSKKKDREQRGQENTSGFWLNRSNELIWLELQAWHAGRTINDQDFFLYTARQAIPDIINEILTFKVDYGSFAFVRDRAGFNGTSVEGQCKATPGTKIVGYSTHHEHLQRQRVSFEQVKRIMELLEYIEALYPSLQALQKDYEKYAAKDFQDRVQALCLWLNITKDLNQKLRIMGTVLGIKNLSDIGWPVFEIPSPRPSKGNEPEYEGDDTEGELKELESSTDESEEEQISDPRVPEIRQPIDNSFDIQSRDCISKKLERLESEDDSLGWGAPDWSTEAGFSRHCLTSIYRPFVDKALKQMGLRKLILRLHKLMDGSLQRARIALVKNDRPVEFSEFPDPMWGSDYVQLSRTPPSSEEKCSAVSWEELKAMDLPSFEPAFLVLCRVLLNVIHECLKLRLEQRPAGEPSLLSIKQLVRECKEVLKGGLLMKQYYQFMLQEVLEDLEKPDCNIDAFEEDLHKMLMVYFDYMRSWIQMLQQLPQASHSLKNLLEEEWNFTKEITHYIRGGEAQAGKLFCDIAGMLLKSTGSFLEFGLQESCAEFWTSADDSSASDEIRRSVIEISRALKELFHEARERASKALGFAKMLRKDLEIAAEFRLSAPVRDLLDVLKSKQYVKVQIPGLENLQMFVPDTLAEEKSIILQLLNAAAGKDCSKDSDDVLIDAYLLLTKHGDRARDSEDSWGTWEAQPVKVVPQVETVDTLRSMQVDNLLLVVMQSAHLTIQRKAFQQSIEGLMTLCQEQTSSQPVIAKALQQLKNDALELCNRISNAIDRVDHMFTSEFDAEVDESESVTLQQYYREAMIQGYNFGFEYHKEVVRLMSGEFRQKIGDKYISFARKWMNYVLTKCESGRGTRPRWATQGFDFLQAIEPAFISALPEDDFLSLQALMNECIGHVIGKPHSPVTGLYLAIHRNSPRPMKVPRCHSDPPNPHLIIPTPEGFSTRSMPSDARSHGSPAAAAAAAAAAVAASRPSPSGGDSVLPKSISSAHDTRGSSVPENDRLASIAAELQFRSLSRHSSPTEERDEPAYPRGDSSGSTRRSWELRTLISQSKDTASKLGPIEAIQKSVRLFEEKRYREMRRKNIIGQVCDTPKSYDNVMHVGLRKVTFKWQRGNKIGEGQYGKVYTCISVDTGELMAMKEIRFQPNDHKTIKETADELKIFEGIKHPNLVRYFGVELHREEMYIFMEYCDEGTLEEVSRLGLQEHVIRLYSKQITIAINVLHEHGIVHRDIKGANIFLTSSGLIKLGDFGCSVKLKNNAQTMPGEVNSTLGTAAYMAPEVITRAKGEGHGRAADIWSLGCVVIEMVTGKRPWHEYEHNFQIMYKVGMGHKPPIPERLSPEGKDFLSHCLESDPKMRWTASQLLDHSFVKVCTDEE
RPS6KA4 KD2 (human), sequence (O75676 whole entry, looked up): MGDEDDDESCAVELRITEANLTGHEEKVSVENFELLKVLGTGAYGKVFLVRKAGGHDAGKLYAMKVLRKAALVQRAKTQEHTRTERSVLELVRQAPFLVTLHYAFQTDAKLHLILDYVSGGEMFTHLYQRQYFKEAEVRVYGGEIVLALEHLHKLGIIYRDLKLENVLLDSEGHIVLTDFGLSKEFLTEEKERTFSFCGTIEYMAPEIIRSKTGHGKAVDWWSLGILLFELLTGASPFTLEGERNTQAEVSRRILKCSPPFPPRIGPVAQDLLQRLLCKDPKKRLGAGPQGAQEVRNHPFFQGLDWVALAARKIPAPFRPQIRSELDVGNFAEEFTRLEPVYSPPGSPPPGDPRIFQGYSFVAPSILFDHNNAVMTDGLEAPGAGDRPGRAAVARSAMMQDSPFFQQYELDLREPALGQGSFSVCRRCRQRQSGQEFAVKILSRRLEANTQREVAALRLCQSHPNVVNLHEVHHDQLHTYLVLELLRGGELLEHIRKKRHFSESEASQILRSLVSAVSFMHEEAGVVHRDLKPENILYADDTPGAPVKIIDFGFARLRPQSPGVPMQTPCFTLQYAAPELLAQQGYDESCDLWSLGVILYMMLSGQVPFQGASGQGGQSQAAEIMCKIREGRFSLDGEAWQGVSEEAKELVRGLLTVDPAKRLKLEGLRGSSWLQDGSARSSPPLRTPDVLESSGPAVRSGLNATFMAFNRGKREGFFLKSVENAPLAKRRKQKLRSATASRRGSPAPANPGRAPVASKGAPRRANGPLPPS
EPHA5 (human), sequence (P54756 whole entry, looked up): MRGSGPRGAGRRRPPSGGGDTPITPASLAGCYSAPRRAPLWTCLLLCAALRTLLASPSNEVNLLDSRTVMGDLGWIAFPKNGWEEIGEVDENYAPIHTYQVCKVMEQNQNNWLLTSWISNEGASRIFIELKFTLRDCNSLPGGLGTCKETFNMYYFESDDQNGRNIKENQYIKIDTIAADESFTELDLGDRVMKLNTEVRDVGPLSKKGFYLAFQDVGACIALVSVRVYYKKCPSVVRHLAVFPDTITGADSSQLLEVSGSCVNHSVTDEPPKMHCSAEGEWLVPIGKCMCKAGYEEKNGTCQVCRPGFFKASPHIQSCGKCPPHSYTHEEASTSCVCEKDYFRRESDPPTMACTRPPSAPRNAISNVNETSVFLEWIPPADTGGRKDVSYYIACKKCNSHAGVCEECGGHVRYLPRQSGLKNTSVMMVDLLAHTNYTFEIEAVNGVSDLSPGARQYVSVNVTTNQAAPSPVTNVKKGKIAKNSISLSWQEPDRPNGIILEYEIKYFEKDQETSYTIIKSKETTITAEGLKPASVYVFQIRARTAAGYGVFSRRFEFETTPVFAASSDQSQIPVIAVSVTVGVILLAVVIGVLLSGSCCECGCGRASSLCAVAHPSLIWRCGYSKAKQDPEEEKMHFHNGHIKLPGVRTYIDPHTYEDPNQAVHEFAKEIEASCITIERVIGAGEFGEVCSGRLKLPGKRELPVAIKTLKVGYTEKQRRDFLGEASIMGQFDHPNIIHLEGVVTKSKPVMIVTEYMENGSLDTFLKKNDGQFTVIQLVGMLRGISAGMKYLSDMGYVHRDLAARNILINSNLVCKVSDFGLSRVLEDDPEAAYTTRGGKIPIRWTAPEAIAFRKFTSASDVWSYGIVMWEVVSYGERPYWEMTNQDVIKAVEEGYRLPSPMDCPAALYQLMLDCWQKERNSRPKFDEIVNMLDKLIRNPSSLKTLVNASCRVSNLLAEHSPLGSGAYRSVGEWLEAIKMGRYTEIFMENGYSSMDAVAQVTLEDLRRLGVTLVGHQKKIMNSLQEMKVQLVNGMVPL

Row | SMILES | kinase still bound, per cent of control (TLK1 (human)) | kinase still bound, per cent of control (PRKD1 (human)) | kinase still bound, per cent of control (FLT3 (human)) | kinase still bound, per cent of control (RPS6KA4 KD2 (human)) | kinase still bound, per cent of control (PAK7 (human)) | kinase still bound, per cent of control (MST1R (human)) | kinase still bound, per cent of control (MERTK (human)) | kinase still bound, per cent of control (PKN1 (human)) | kinase still bound, per cent of control (MARK3 (human)) | kinase still bound, per cent of control (PIK3CB (human)) | kinase still bound, per cent of control (FGFR1 (human)) | kinase still bound, per cent of control (NLK (human)) | kinase still bound, per cent of control (CSNK1G3 (human)) | kinase still bound, per cent of control (STK16 (human)) | kinase still bound, per cent of control (MYLK2 (human)) | kinase still bound, per cent of control (CSNK1A1L (human)) | kinase still bound, per cent of control (MAP3K4 (human)) | kinase still bound, per cent of control (STK32B (human)) | kinase still bound, per cent of control (PIK3CD (human)) | kinase still bound, per cent of control (CSNK2A1 (human)) | also measured
1 | CCCS(=O)(=O)Nc1ccc(F)c(C(=O)c2c[nH]c3ncc(Cl)cc23)c1F | 58% | 31% | 14% | 69% | 44% | 100% | 94% | 85% | 74% | 100% | 34% | 100% | 79% | 18% | 64% | 100% | 92% | 100% | 84% | 18% | kinase still bound, per cent of control (CSNK1A1 (human)): 84%; kinase still bound, per cent of control (PIP4K2C (human)): 100%; kinase still bound, per cent of control (MAP4K4 (human)): 64%; kinase still bound, per cent of control (EPHA5 (human)): 100%; kinase still bound, per cent of control (MAP3K6 (human)): 96%; kinase still bound, per cent of control (LYN (human)): 24%; kinase still bound, per cent of control (ULK1 (human)): 44%; kinase still bound, per cent of control [1]: 100%; kinase still bound, per cent of control (BRAF (human)): 0%; kinase still bound, per cent of control [2]: 77%; kinase still bound, per cent of control (RIOK2 (human)): 3%; kinase still bound, per cent of control (MAPK6 (human)): 100%; kinase still bound, per cent of control (MAP4K1 (human)): 70%; kinase still bound, per cent of control (MAP3K3 (human)): 61%; kinase still bound, per cent of control (MAPK7 (human)): 65%
2 | CCN(CCO)CCCOc1ccc2c(Nc3cc(CC(=O)Nc4cccc(F)c4)[nH]n3)ncnc2c1 | 60% | 72% | 0.4% | 79% | 100% | 25% | 77% | 90% | 88% | 81% | 85% | 100% | 100% | 100% | 87% | 99% | 90% | 100% | 88% | 84% | kinase still bound, per cent of control (CSNK1A1 (human)): 49%; kinase still bound, per cent of control (PIP4K2C (human)): 51%; kinase still bound, per cent of control (MAP4K4 (human)): 98%; kinase still bound, per cent of control (LYN (human)): 18%; kinase still bound, per cent of control (ULK1 (human)): 76%; kinase still bound, per cent of control [1]: 98%; kinase still bound, per cent of control (BRAF (human)): 100%; kinase still bound, per cent of control [2]: 100%; kinase still bound, per cent of control (RIOK2 (human)): 58%; kinase still bound, per cent of control (MAPK6 (human)): 100%; kinase still bound, per cent of control (MAP4K1 (human)): 76%; kinase still bound, per cent of control (MAP3K3 (human)): 70%; kinase still bound, per cent of control (MAPK7 (human)): 87%
3 | COc1cc2c(Nc3ccc(NC(=O)c4ccccc4)cc3)ncnc2cc1OCCCN1CCOCC1 | 78% | 99% | 8.8% | 100% | 94% | 3.9% | 2.4% | 100% | 96% | 81% | 94% | 100% | 100% | 100% | 100% | 99% | 62% | 100% | 100% | 87% | kinase still bound, per cent of control (CSNK1A1 (human)): 63%; kinase still bound, per cent of control (PIP4K2C (human)): 53%; kinase still bound, per cent of control (EPHA5 (human)): 100%; kinase still bound, per cent of control (MAP3K6 (human)): 100%; kinase still bound, per cent of control (LYN (human)): 7.2%; kinase still bound, per cent of control (ULK1 (human)): 48%; kinase still bound, per cent of control [1]: 83%; kinase still bound, per cent of control (BRAF (human)): 100%; kinase still bound, per cent of control [2]: 100%; kinase still bound, per cent of control (RIOK2 (human)): 100%; kinase still bound, per cent of control (MAPK6 (human)): 100%; kinase still bound, per cent of control (MAP4K1 (human)): 60%; kinase still bound, per cent of control (MAP3K3 (human)): 18%; kinase still bound, per cent of control (MAPK7 (human)): 89%
4 | CCc1nc(-c2cccc(C)c2)c(-c2ccnc(NC(=O)c3ccccc3)c2)s1 | 82% | 65% | 17% | 100% | 90% | 88% | 100% | 98% | 72% | 95% | 72% | 4% | 17% | 74% | 96% | 1.3% | 85% | 7% | 100% | 100% | kinase still bound, per cent of control (EPHA5 (human)): 90%; kinase still bound, per cent of control (MAP3K6 (human)): 100%; kinase still bound, per cent of control (LYN (human)): 54%; kinase still bound, per cent of control (ULK1 (human)): 69%; kinase still bound, per cent of control [1]: 57%; kinase still bound, per cent of control (BRAF (human)): 40%; kinase still bound, per cent of control [2]: 100%; kinase still bound, per cent of control (RIOK2 (human)): 92%; kinase still bound, per cent of control (MAPK6 (human)): 85%; kinase still bound, per cent of control (MAP4K1 (human)): 86%; kinase still bound, per cent of control (MAP3K3 (human)): 92%; kinase still bound, per cent of control (MAPK7 (human)): 98%
